Assay results taken from ChEMBL document CHEMBL1201862, “PubChem BioAssay data set” (2004).
Active and inactive are the calls of the source. Cut-off read from the data, not from the text of the source: actives have a measured IC50 and inactives only a lower limit.

Columns and labels:
Type in all cases: functional
[1] = target: T1, Sentrin-specific protease 8 (Homo sapiens, UniProt Q96LD8); experiment: inhibition of human SENP8 cleavage activity – biochemical, luminescence, SAR follow-up (AID 504501)
T1 sequence (Q96LD8 whole entry): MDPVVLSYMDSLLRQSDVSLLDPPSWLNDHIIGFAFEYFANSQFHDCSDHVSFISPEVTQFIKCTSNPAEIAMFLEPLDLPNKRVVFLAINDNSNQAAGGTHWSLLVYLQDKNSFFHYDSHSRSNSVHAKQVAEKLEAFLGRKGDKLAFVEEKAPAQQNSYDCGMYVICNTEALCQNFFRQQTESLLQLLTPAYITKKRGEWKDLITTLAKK

[2] = target: T2, Caspase-3 (Homo sapiens, UniProt P42574); experiment: inhibition of recombinant caspase-3 activity – biochemical, luminescence, set 2, selectivity assay for SENP protease inhibitor project, SAR follow-up (AID 588599)
T2 sequence (P42574 whole entry): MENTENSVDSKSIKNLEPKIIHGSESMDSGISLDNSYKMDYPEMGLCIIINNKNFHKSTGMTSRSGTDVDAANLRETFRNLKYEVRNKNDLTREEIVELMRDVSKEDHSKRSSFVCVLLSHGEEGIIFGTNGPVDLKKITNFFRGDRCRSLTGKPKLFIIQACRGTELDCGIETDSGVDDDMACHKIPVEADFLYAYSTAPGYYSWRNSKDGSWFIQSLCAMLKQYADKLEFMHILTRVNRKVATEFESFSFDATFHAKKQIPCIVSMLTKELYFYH

[3] = target: T1, Sentrin-specific protease 8; experiment: inhibition of sentrin protease 8 – biochemical, luminescence, set 2, SAR follow-up (AID 588601)
[4] = target: T2, Caspase-3; experiment: SAR Analysis of small molecule inhibitors of Sentrin-specific proteases (SENPs) using a Caspase-3 Selectivity assay. [Related pubchem assays (depositor defined):AID2540, AID2599, AID434973, AID489001]
[5] = target: T3, Sentrin-specific protease 7 (Homo sapiens, UniProt Q9BQF6); experiment: inhibition of human SENP7 cleavage activity – biochemical, luminescence, set 2, SAR follow-up (AID 588600)
T3 sequence (Q9BQF6 whole entry): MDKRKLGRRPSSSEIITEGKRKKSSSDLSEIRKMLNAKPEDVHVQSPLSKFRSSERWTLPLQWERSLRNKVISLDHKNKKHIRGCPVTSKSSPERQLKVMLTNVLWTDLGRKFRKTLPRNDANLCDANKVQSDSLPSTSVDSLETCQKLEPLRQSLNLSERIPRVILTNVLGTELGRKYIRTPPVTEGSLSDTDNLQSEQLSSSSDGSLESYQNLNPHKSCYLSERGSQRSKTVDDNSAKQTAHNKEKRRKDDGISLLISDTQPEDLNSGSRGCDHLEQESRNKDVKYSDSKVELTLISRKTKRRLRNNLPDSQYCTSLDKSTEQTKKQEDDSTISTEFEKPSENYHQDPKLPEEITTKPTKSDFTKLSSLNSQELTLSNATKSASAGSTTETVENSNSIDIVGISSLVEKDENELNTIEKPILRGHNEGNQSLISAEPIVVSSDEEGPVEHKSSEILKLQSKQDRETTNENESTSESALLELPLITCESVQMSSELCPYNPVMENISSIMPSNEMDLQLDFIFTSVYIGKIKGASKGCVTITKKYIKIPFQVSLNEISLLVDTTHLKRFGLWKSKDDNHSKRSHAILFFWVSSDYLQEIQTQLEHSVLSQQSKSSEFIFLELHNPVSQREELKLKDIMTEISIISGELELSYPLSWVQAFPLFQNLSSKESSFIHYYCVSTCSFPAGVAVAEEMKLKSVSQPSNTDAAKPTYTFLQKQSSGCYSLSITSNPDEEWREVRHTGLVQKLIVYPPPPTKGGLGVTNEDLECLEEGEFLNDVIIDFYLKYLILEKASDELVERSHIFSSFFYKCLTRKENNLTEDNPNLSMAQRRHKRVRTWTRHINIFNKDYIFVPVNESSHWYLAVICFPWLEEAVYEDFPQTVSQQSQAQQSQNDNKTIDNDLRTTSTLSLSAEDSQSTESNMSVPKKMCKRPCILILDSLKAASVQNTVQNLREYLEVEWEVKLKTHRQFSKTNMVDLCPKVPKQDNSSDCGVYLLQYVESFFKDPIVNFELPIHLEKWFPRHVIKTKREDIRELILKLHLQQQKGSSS

[6] = target: T4, Sentrin-specific protease 6 (Homo sapiens, UniProt Q9GZR1); experiment: SAR Analysis of small molecule inhibitors of Sentrin-specific protease 6 (SENP6) using a Luminescent assay. [Related pubchem assays (depositor defined):AID2582, AID2599]
T4 sequence (Q9GZR1 whole entry): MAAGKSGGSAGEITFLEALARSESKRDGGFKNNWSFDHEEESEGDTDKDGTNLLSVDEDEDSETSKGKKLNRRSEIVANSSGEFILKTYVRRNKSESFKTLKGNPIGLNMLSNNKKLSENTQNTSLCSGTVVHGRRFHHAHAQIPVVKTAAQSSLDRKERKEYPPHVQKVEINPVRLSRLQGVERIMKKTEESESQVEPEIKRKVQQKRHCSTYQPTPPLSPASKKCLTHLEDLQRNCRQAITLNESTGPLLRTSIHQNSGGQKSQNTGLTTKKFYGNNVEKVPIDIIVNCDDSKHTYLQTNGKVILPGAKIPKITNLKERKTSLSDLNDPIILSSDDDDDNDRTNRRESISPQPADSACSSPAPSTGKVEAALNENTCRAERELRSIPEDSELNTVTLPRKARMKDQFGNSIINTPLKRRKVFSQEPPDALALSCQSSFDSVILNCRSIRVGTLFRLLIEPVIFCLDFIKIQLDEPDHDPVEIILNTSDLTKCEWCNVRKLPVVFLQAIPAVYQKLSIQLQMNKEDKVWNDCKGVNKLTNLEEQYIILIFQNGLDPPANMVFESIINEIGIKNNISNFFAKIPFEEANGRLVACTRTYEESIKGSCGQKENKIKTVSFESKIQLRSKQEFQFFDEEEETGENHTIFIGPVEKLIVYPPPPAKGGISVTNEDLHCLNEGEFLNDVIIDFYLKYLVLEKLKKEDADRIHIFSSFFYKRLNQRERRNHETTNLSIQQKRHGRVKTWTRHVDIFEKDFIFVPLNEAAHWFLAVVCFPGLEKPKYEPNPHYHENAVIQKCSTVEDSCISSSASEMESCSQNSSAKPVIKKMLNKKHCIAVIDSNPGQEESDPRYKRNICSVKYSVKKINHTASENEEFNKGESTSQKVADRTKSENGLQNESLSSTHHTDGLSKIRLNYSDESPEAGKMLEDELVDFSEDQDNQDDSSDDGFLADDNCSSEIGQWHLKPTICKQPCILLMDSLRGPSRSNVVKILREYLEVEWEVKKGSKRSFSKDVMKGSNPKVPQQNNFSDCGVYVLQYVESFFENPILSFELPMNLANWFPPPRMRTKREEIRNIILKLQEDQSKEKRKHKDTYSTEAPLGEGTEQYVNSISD

[7] = target: T4, Sentrin-specific protease 6; experiment: inhibition of human SENP6 catalytic domain – biochemical, luminescence, set 2, SAR follow-up (AID 588598)
[8] = target: T3, Sentrin-specific protease 7; experiment: inhibition of human SENP7 cleavage activity – biochemical, luminescence, SAR follow-up (AID 504497)

IC50 [2]: 2550 nM (active)
IC50 [4]: 5500 nM (active)
IC50 [5]: 1870 nM (active)
IC50 [6]: 20000 nM (active)
IC50 [7]: 1530 nM (active)
IC50 [8]: 1600 nM (active)
SMILES: Oc1ccccc1-c1nc(/C=C/c2ccc(F)cc2)no1
IC50 [1]: > 99000 nM (inactive)
IC50 [3]: 1640 nM (active)
